The values that follow come from EP1657232A1, “Use of S-enantiomers of alpha-sustituted aryl acetic acids for the prevention of Alzheimer's disease” (CELLZOME AG, priority 2004, dated 2006).

The target in this test is T1, cyclooxygenase-1 (Cox-1) (Ovis aries, UniProt P05979).
T1 construct: purchased Cayman Chemical Company 760111
T1 sequence (P05979 25-600): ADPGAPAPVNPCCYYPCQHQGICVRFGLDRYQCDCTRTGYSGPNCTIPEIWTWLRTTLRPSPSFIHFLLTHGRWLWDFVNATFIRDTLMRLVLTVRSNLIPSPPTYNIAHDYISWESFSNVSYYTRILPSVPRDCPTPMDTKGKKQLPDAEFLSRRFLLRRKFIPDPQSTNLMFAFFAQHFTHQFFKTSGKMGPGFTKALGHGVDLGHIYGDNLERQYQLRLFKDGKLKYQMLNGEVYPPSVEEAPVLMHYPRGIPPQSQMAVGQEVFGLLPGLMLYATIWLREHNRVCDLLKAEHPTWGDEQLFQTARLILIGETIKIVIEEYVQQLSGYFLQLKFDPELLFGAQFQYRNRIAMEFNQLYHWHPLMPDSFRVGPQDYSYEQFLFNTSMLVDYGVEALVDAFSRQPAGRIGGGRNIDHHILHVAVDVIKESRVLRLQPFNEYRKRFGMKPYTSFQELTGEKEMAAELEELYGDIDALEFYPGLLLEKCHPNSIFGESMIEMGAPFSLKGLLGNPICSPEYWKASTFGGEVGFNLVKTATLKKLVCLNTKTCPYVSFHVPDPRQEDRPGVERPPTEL
Nature of the test: Colorimetric Cox inhibitor screening assay (Cayman Chemical, Cat. No. 760111). The class given is biochemical. Here is the method: Inhibition of Cox-1 is determined using the Colorimetric Cox inhibitor screening assay provided by Cayman Chemical Company, Ann Arbor, MI, USA. (Cat. No. 760111) according to manufacturer's instructions.

Each structure is given as a SMILES string.

`CC(C)[C@H](C(=O)O)c1ccc(-c2cccc(C(F)(F)F)c2)cc1` [title compound of example 1, 2(S)-(3'-trifluoromethyl-biphenyl-4-yl)-3-methyl-butanoic acid]: the “inhibitory effect against Cox-1 activity” value is “no inhibitory effect”.
